The source of these data is US9169260B2 (MERCK SHARP & DOHME CORP., priority 2011, dated 2015).

The structures appear in SMILES notation. pIC50: −log10 of the molar value.

Chain of GST tagged IRAK-4 (Q9NWZ3 whole entry): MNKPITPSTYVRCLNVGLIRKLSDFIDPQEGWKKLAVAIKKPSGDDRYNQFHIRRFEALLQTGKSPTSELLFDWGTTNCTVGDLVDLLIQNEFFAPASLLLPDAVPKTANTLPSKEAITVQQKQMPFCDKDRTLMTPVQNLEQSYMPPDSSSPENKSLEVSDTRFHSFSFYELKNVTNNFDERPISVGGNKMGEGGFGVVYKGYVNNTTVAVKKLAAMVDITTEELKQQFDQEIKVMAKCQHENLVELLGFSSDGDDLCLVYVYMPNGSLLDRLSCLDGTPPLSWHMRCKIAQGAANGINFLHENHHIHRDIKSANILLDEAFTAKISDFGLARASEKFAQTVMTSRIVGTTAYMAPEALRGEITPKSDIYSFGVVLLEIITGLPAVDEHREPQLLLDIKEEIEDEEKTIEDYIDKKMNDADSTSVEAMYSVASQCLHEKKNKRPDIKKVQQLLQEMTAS

The first assay concerns the target GST tagged IRAK-4 (Homo sapiens (Human), UniProt Q9NWZ3). Put plainly: IRAK-4 Kinase Assay (IMAP fluorescence polarization). The assay is classed as biochemical.
Settings: not given
The method in brief: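 Activity was read by IMAP fluorescence polarization, where phosphopeptide binding to M(III) nanoparticles raises FP. The 30-minute, 25° C reaction used 100 μM ATP, 100 nM RP7030 substrate and 0.5 nM GST-IRAK-4 in pH 7.2 Tris buffer with MgCl2, DTT and Tween 20.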
As to `Cc1ccc(-n2nc(C3CCN(S(C)(=O)=O)CC3)cc2NC(=O)c2cnn3cccnc23)cn1` [Example 168, N-(1-(6-methylpyridin-3-yl)-3-(1-(methylsulfonyl)piperidin-4-yl)-1H-pyrazol-5-yl)pyrazolo[1,5-a]pyrimidine-3-carboxamide], the pIC50 was greater than 6.00.

The same assay, now with this note: 100 μM ATP, 30 minutes at 25° C.
Take `CCOC(=O)N1CCC(N2CCC(c3cc(NC(=O)c4cnn5cccnc45)n(-c4ccc(C)cn4)n3)CC2)CC1` [Example 276, ethyl 4-{1-(5-methylpyridin-2-yl)-5-[(pyrazolo[1,5-a]pyrimidin-3-ylcarbonyl)amino]-1H-pyrazol-3-yl}-1,4′-bipiperidine-1′-carboxylate]: the pIC50 is greater than 7.00.

In turn, `Cc1ccc(-n2nc(C3CCN(C4CC4)CC3)cc2NC(=O)c2cnn3cccnc23)cc1` [Example 40, N-(3-(1-cyclopropylpiperidin-4-yl)-1-(p-tolyl)-1H-pyrazol-5-yl)pyrazolo[1,5-a]pyrimidine-3-carboxamide] gave a pIC50 greater than 7.00.

In turn, `Cc1ccc(-n2nc(-c3ccc(CN4CCOCC4)cc3)cc2NC(=O)c2cnn3cccnc23)cc1` [Example 145, N-(3-(4-(morpholinomethyl)phenyl)-1-(p-tolyl)-1H-pyrazol-5-yl)pyrazolo[1,5-a]pyrimidine-3-carboxamide] had a negative-log IC50 (pIC50) greater than 7.00.

For the molecule `Cc1ccc(-n2nc(C3CCN(C4CCC5(CCC(=O)N5)CC4)CC3)cc2NC(=O)c2cnn3cccnc23)cc1` (stereo not drawn) [Example 255, N-{1-(4-methylphenyl)-3-[1-(2-oxo-1-azaspiro[4.5]dec-8-yl)piperidin-4-yl]-1H-pyrazol-5-yl}pyrazolo[1,5-a]pyrimidine-3-carboxamide], the negative logarithm of the IC50 (pIC50) is greater than 7.00.

With `Cc1ccc(-n2nc(N3CCN(C4CCCCC4)CC3)cc2NC(=O)c2cnn3cccnc23)nc1` [Example 319, N-[3-(4-cyclohexylpiperazin-1-yl)-1-(5-methylpyridin-2-yl)-1H-pyrazol-5-yl]pyrazolo[1,5-a]pyrimidine-3-carboxamide], the pIC50 was greater than 7.00.

Molecule `Cc1ccc(-n2nc(-c3ccc(S(C)(=O)=O)cc3C(F)(F)F)cc2NC(=O)c2cnn3cccnc23)cc1` [Example 338, N-{1-(4-methylphenyl)-3-[4-(methylsulfonyl)-2-(trifluoromethyl)phenyl]-1H-pyrazol-5-yl}pyrazolo[1,5-a]pyrimidine-3-carboxamide] had a pIC50 of 7.00.

Regarding `COCC(C)N1CCC(c2cc(NC(=O)c3cnn4cccnc34)n(-c3ccc(C)cc3)n2)CC1` (stereo not drawn) [Example 211, N-(3-(1-(1-methoxypropan-2-yl)piperidin-4-yl)-1-(p-tolyl)-1H-pyrazol-5-yl)pyrazolo[1,5-a]pyrimidine-3-carboxamide], the negative logarithm of the IC50 (pIC50) is greater than 7.00.

Regarding `O=C(Nc1cc(C2CCNCC2)nn1-c1ccc(C2CC2)cc1F)c1cnn2cccnc12` [Example 72, N-(1-(4-cyclopropyl-2-fluorophenyl)-3-(piperidin-4-yl)-1H-pyrazol-5-yl)pyrazolo[1,5-a]pyrimidine-3-carboxamide], the pIC50 is greater than 7.00.

Consider `Cc1ccc(-n2nc(-c3ccc(S(C)(=O)=O)cc3)cc2NC(=O)c2cnn3cccnc23)cc1` [Example 134, N-(3-(4-(methylsulfonyl)phenyl)-1-(p-tolyl)-1H-pyrazol-5-yl)pyrazolo[1,5-a]pyrimidine-3-carboxamide], for which the negative logarithm of the IC50 (pIC50) was greater than 7.00.

As to `Cc1ccc(-n2nc(C3CCN(C4CC[C@@H](C)C4)CC3)cc2NC(=O)c2cnn3cccnc23)nc1` (stereo partly drawn) [Example 273, N-[3-{1-[(3R)-3-methylcyclopentyl]piperidin-4-yl}-1-(5-methylpyridin-2-yl)-1H-pyrazol-5-yl]pyrazolo[1,5-a]pyrimidine-3-carboxamide], the pIC50 was greater than 7.00.

For `Cc1ccc(-n2nc(C3CCN(C4CCC4)CC3)cc2NC(=O)c2cnn3cccnc23)nc1` [Example 274, N-[3-(1-cyclobutylpiperidin-4-yl)-1-(5-methylpyridin-2-yl)-1H-pyrazol-5-yl]pyrazolo[1,5-a]pyrimidine-3-carboxamide], the negative logarithm of the IC50 (pIC50) is greater than 7.00.

The molecule `O=C(Nc1cc(C2CCNCC2)nn1-c1ccc(C2CC2)cn1)c1cnn2cccnc12` [Example 146, N-(1-(5-cyclopropylpyridin-2-yl)-3-(piperidin-4-yl)-1H-pyrazol-5-yl)pyrazolo[1,5-a]pyrimidine-3-carboxamide] gave a pIC50 greater than 7.00.

`CCCN1CCC(c2cc(NC(=O)c3cnn4cccnc34)n(-c3ccc(C)cc3)n2)CC1` [Example 220, N-[1-(4-methylphenyl)-3-(1-propylpiperidin-4-yl)-1H-pyrazol-5-yl]pyrazolo[1,5-a]pyrimidine-3-carboxamide] gave a pIC50 greater than 7.00.

The assay is the same for the next values; noted with them: 100 μM ATP, 30 minutes at 25° C.; μM.
For `Cc1ccc(-n2nc(-c3cnn(C)c3)cc2NC(=O)c2cnn3cccnc23)cc1` [Example 326, N-[1′-methyl-1-(4-methylphenyl)-1H,1′H-3,4′-bipyrazol-5-]pyrazolo[1,5-a]pyrimidine-3-carboxamide], the concentration for half-maximal inhibition (IC50) was less than 1 µM.

In turn, `Cc1ccc(-n2nc(-c3ccc(S(=O)(=O)C(C)C)cc3)cc2NC(=O)c2cnn3cccnc23)cc1` [Example 341, N-[3-{4-[(1-methylethyl)sulfonyl]phenyl}-1-(4-methylphenyl)-1H-pyrazol-5-yl]pyrazolo[1,5-a]pyrimidine-3-carboxamide] showed an IC50 of less than 1 µM.

Molecule `Cc1ccc(-n2nc(C3CCN(S(=O)(=O)c4cccc(C#N)c4)CC3)cc2NC(=O)c2cnn3cccnc23)cc1` [Example 374, N-[3-{1-[(3-cyanophenyl)sulfonyl]piperidin-4-yl}-1-(4-methylphenyl)-1H-pyrazol-5-yl]pyrazolo[1,5-a]pyrimidine-3-carboxamide] displayed a half-inhibitory concentration (IC50) of less than 1 µM.

Molecule `Cc1ccc(-n2nc(C3CCN(S(=O)(=O)c4ccc5ccccc5c4)CC3)cc2NC(=O)c2cnn3cccnc23)cc1` [Example 377, N-{1-(4-methylphenyl)-3-[1-(naphthalen-2-ylsulfonyl)piperidin-4-yl]-1H-pyrazol-5-yl}pyrazolo[1,5-a]pyrimidine-3-carboxamide] showed an IC50 greater than 1 µM.

The molecule `Cc1ccc(-n2nc(CC3CCOCC3)cc2NC(=O)c2cnn3cccnc23)cc1` [Example 45, N-(3-((tetrahydro-2H-pyran-4-yl)methyl)-1-(p-tolyl)-1H-pyrazol-5-yl)pyrazolo[1,5-a]pyrimidine-3-carboxamide] yielded an IC50 of less than 1 µM.

Take `Cc1cccc(-n2nc(C3CCN(S(C)(=O)=O)CC3)cc2NC(=O)c2cnn3cccnc23)c1` [Example 17, N-(3-(1-(methylsulfonyl)piperidin-4-yl)-1-(m-tolyl)-1H-pyrazol-5-yl)pyrazolo[1,5-a]pyrimidine-3-carboxamide]: the IC50 is less than 1 µM.

In turn, `O=C(Nc1cc(C2CCNCC2)nn1-c1ccc(C(F)(F)F)cc1)c1cnn2cccnc12` [Example 11, N-(3-(piperidin-4-yl)-1-(4-(trifluoromethyl)phenyl)-1H-pyrazol-5-yl)pyrazolo[1,5-a]pyrimidine-3-carboxamide] yielded an IC50 of less than 1 µM.

`Cc1ccc(-n2nc(C3CCN(S(=O)(=O)c4ccc(Cl)s4)CC3)cc2NC(=O)c2cnn3cccnc23)cc1` [Example 393, N-[3-{1-[(5-chlorothiophen-2-yl)sulfonyl]piperidin-4-yl}-1-(4-methylphenyl)-1H-pyrazol-5-yl]pyrazolo[1,5-a]pyrimidine-3-carboxamide]: the IC50 is greater than 1 µM.

Regarding `Cc1nn(C)c2nc(-n3nc(C4CCN(S(C)(=O)=O)CC4)cc3NC(=O)c3cnn4cccnc34)ccc12` [Example 175, N-(1-(1,3-dimethyl-1H-pyrazolo[3,4-b]pyridin-6-yl)-3-(1-(methylsulfonyl)piperidin-4-yl)-1H-pyrazol-5-yl)pyrazolo[1,5-a]pyrimidine-3-carboxamide], the IC50 was less than 1 µM.

For the molecule `CCN(CC)S(=O)(=O)c1ccc(-c2cc(NC(=O)c3cnn4cccnc34)n(-c3ccc(C)cc3)n2)c(C)c1` [Example 340, N-{3-[4-(diethylsulfamoyl)-2-methylphenyl]-1-(4-methylphenyl)-1H-pyrazol-5-yl}pyrazolo[1,5-a]pyrimidine-3-carboxamide], the IC50 was less than 1 µM.

Regarding `Cc1ccc(-n2nc(C3CN(Cc4cncnc4)C3)cc2NC(=O)c2cnn3cccnc23)cc1` [Example 310, N-{1-(4-methylphenyl)-3-[1-(pyrimidin-5-ylmethyl)azetidin-3-yl]-1H-pyrazol-5-yl}pyrazolo[1,5-a]pyrimidine-3-carboxamide], the IC50 was less than 1 µM.

`Cc1ccc(-n2nc(C3CCN(S(=O)(=O)c4cc(F)cc(F)c4)CC3)cc2NC(=O)c2cnn3cccnc23)cc1` [Example 360, N-[3-{1-[(3,5-difluorophenyl)sulfonyl]piperidin-4-yl}-1-(4-methylphenyl)-1H-pyrazol-5-yl]pyrazolo[1,5-a]pyrimidine-3-carboxamide] yielded an IC50 of less than 1 µM.

Turning to `COC(=O)N1CCC(c2cc(NC(=O)c3cnn4cccnc34)n(-c3ccc(OC)cc3)n2)CC1` [Example 32, methyl 4-(1-(4-methoxyphenyl)-5-(pyrazolo[1,5-a]pyrimidine-3-carboxamido)-1H-pyrazol-3-yl)piperidine-1-carboxylate], the IC50 is less than 1 µM.

Turning to `Cc1ccc(-n2nc(-c3ccnc(CO)c3)cc2NC(=O)c2cnn3cccnc23)cc1` [Example 329, N-{3-[2-(hydroxymethyl)pyridin-4-yl]-1-(4-methylphenyl)-1H-pyrazol-5-yl}pyrazolo[1,5-a]pyrimidine-3-carboxamide], the half-maximal inhibitory concentration (IC50) is less than 1 µM.

For `Cc1ccc(-n2nc(C3CCN(C4CN(S(=O)(=O)CF)C4)CC3)cc2NC(=O)c2cnn3cccnc23)cc1` [Example 247, N-[3-(1-{1-[(fluoromethyl)sulfonyl]azetidin-3-yl]piperidin-4-yl)-1-(4-methylphenyl)-1H-pyrazol-5-yl}pyrazolo[1,5-a]pyrimidine-3-carboxamide], the IC50 was less than 1 µM.

Turning to `Cc1ccc(-n2nc(CN3CCCC3)cc2NC(=O)c2cnn3cccnc23)cc1` [Example 142, N-(3-(pyrrolidin-1-ylmethyl)-1-(p-tolyl)-1,4-pyrazol-5-yl)pyrazolo[1,5-a]pyrimidine-3-carboxamide], the IC50 was greater than 1 µM.
